The text below walks through data of article PMC10707221, “A Novel Lipase from Streptomyces exfoliatus DSMZ 41693 for Biotechnological Applications” (International Journal of Molecular Sciences, 2023).

The term Km denotes the substrate concentration at which the rate is half of its maximum.

In this assay the test system is T1, SeLipC.
T1 construct: gene lipC; Full gene with native signal peptide (33 aa) expressed in Rhodococcus sp; T104 (pENV19), secreted; purified on phenyl sepharose; The printed nt borders (870 nt) give about 289 codons, not 33 + 259
Briefly: colorimetric p-nitrophenol release at […] nm, nonlinear hyperbolic fit. It is filed as biochemical, Streptomyces exfoliatus. The settings on record: 50 mM Tris/HCl pH 8.0, 37 °C; pNPP 10-800 µM; standard assay with isopropanol, gum arabic and sodium deoxycholate.

Turning to `CCCCCCCCCCCCCCCC(=O)Oc1ccc([N+](=O)[O-])cc1` [pNPP, p-nitrophenyl palmitate], the Km turned out to be 49.6 ± 11.2 µM.
